Source: patent US20040029860A1, “Anti-proliferative drugs” (priority 2000, published 2004)
Read-outs that look alike come from different tables or passages of the source.

Tests used:
[1] = test system: mouse embryo whole brain culture; assay: primary tissue culture, whole brain; type: cell-based; conditions: read-out: IC50 whole brain tissue
different cell-lines = assay: mean IC50 over cell lines and therapeutic index
[2] = test system: human prostate cancer PC-3; assay: cell viability, prostate PC-3; type: cell-based; conditions: for inhibition of cell proliferation, PC-3 (in words): 1 μM-100 μM, androgen independent, FIG. 2B; for IC50: Table 1A, read-out: Viability IC50 Prostate PC3
rat glioblastoma (C6) = assay: cell viability, glioma C6; type: cell-based; conditions: for IC50: Table 1A
mouse melanoma (B-16) = assay: cell viability, melanoma B16; type: cell-based
Experimental: (§1) Cyclic antidepressants at varying concentrations (between 10PM and 100 μM) was applied to neuroblastoma SH-SY5T, 3LL lung carcinoma, prostate (LN-CapAp), melanoma B16, and cell viability was determined as described above.

[3] = test system: human prostate (LN-CapAp); assay: cell viability, prostate LN-Cap; type: cell-based; conditions: for inhibition of cell proliferation, LN-Cap (in words): 1 μM-100 μM, androgen dependent, FIG. 2A; for IC50: Table 1A, read-out: Viability IC50 Prostate LN-Cap
Experimental: The effect of trifluoperazine and flupentixol was studied in two cell-lines of human prostate cancer: androgen dependent (LN-Cap) and androgen independent (PC-3).
as §1

HaCat I5 keratinocytes = assay: keratinocyte viability, Neutral red, HaCat I5; type: cell-based, human; conditions: for cell viability HaCat I5 (in words): 5-100 μM, 24 hr, Neutral red, FIG. 13B, 15B; for IC50: Homo sapiens, HaCaT
Experimental: (§2) The drugs were administered at concentrations within the range of 5-100 μM and cell viability was measured 24 hr post-administration by Neutral red staining. The efficiency of the agents against viability of the cell lines was evaluated also by comparison with two commonly used anticancer agents (Doxorubicin and 5-fluorouracil (5-FU)) at equimolar concentrations.

HaCat keratinocytes = assay: keratinocyte viability, Neutral red, HaCat; type: cell-based, human; conditions: for cell viability HaCat (in words): 5-100 μM, 24 hr, Neutral red, FIG. 13A, 15A; for IC50: Homo sapiens, HaCaT
Experimental: as §2

[4] = test system: mouse Lewis lung carcinoma (3LL); assay: in vivo effect on Lewis lung carcinoma (3LL) in mice; conditions: 3LL inoculated C57 mice, i.p. daily, thioridazine 15 mg/kg, others 30 mg/kg
Experimental: Female C57 black mice aged 4 weeks were used in order to evaluate the in vivo effect of cyclic psychotropic agents on tumor cells. In particular, animals were divided into 5 groups (6-8 mice each). Animals were inoculated with mouse Lewis lung carcinoma (3LL, 0.5 million each) by i.v. injection to the tail vein and then treated by i.p. injection daily for 3 weeks with the following different agents
(5) Paroxetine (30 mg/kg).
During the treatment period animals were inspected daily and their body weight registered twice a week. […] After the four weeks of treatment the mice were sacrificed and their lungs dissected and weighted.

[5] = test system: doxorubicin resistant neuroblastoma cells (SH-SY5T); assay: sensitization to doxorubicin, doxorubicin resistant neuroblastoma SH-SY5T; type: cell-based, human; conditions: dose dependant, FIG. 6E, 6F
mouse lung sarcoma (3LL) = assay: cell viability, lung 3LL; type: cell-based; conditions: for IC50: Mus musculus, Table 1B, read-out: Cell viability IC50 Lungs Sarcoma 3LL
Experimental: In another experiment the effect of clotiapine at the same concentrations on the viability of mouse lung carcinoma (3LL) cells was determined.
as §1

[6] = test system: human neuroblastoma (SK-N-SH); assay: cell viability (neutral red, Almar Blue, Hoechst dye), neuroblastoma SK-N-SH; type: cell-based
[7] = test system: human neuroblastoma (SH-SY5T); assay: cell viability, neuroblastoma SH-SY5T; type: cell-based; conditions: Homo sapiens
Experimental: The effect of paroxetine on primary tissue cultures was also evaluated. […] The viability of the cells after treatment with paroxetine was determined by neutral red (NR) technology 24 hr. post treatment.
as §1

[8] = primary culture, data not shown
[9] = Mus musculus, Table 1A, read-out: Viability IC50 Melanoma B16
[10] = Mus musculus, Table 1B, read-out: Cell viability IC50 Melanoma 16B

Experimental for Melanoma B16 cells: Mice C57 black females ages 5-7 weeks were used. Mice were inoculated with Melanoma B16 cells and divided randomly (7-8/cage). Animals were divided into three groups:
1. Control-B16 cells with no therapy;
2. Treatment with doxorubicin 4 mg/kg i.p given once (3 days later).

SMILES: CN1CCN(C2=Nc3cc(Cl)ccc3Nc3ccccc32)CC1 [Clozapine]
- IC50 [1, 8]: > 200 µM

SMILES: CN1CCN(CCCN2c3ccccc3Sc3ccc(C(F)(F)F)cc32)CC1 [Trifluoperazine]
- IC50 (different cell-lines; read-out: IC50 Mean ± SD): 16.7 ± 1.9 µM
- inhibition of cell proliferation, PC-3 (in words) [2]: effective in inhibition of cell proliferation
- IC50 ([2]; Homo sapiens): 19 µM
- IC50 (rat glioblastoma (C6); Rattus norvegicus): 14 µM
- IC50 (mouse melanoma (B-16); [9]): 16 µM
- inhibition of cell proliferation, LN-Cap (in words) [3]: effective in inhibition of cell proliferation
- IC50 ([3]; Homo sapiens, LNCaP): 18 µM

SMILES: CNCCC(Oc1ccc(C(F)(F)F)cc1)c1ccccc1 (centres unmarked) [Fluoxetine]
- cell viability HaCat I5 (in words) (HaCat I5 keratinocytes): effective in reducing cell viability
- cell viability HaCat (in words) (HaCat keratinocytes): effective in reducing cell viability
- survival rate during four weeks of treatment [4]: 5/7
- lungs weight / tumor size compared to control group ([4]; FIG. 5): effective in reducing tumor size
- potentiation of doxorubicin toxicity (in words) [5]: potentiate the toxicity of doxorubicin

SMILES: COc1cccc2c1C(=O)c1c(O)c3c(c(O)c1C2=O)C[C@@](O)(C(=O)CO)C[C@@H]3O[C@H]1C[C@H](N)[C@H](O)[C@H](C)O1 [doxorubicin]
- cell viability HaCat I5 (in words) (HaCat I5 keratinocytes): only the HaCat (non tumorigenic) cells responded
- cell viability HaCat (in words) (HaCat keratinocytes): same equimolar IC50 levels as for thioridazine
- Confluent lung metastases (number of mice) (Melanoma B16 cells; Table 2, of 7 total): 3
- Early death (number of mice) (Melanoma B16 cells; Table 2, of 7 total): 2
- Non-confluent lung metastases (number of mice) (Melanoma B16 cells; Table 2, of 7 total): 2
- number of animals presenting non confluent lungs (Melanoma B16 cells; after 21 days, B16 control 0/7): 2/7
- lungs weight (Melanoma B16 cells; after 21 days, B16 controls 770+/−95): 538 ± 137 mg
- survival / animals died (Melanoma B16 cells; doxorubicin 4 mg/kg i.p. once, thioridazine 25-35 mg/kg/day via drinking water): 2/7

SMILES: CN1CCN(C2=Nc3ccccc3Sc3ccc(Cl)cc32)CC1 [Clotiapine]
- IC50 (HaCat I5 keratinocytes; mean of the determinations, read-out: IC50 HaCat I5 ME): > 100 µM
- IC50 (HaCat I5 keratinocytes; single determinations, read-out: IC50 HaCat I5): > 100 µM
- IC50 (HaCat keratinocytes; mean of the determinations, read-out: IC50 HaCat ME): > 100 µM
- IC50 (HaCat keratinocytes; single determinations, read-out: IC50 HaCat): > 100 µM
- IC50 (mouse melanoma (B-16); [10]): 45 µM
- cell viability, 3LL lung carcinoma (in words) (mouse lung sarcoma (3LL); 10 μM-100 μM, FIG. 3B, 4B): effective in reducing viability
- IC50 (mouse lung sarcoma (3LL)): 40 µM

SMILES: OCCN1CCN(CC/C=C2/c3ccccc3Sc3ccc(C(F)(F)F)cc32)CC1 [Flupentixiol]
- IC50 (different cell-lines; read-out: IC50 Mean ± SD, Table 1A, mean over the cell lines): 18.2 ± 3.2 µM
- inhibition of cell proliferation, PC-3 (in words) [2]: effective in inhibition of cell proliferation
- IC50 [2]: 18 µM
- IC50 (rat glioblastoma (C6)): 14 µM
- IC50 (mouse melanoma (B-16); Table 1A, read-out: Viability IC50 Melanoma B16): 18 µM
- inhibition of cell proliferation, LN-Cap (in words) [3]: effective in inhibition of cell proliferation
- IC50 [3]: 23 µM

SMILES: Cc1nc2n(c(=O)c1CCN1CCC(c3noc4cc(F)ccc34)CC1)CCCC2 [Risperidone]
- IC50 [1]: > 200 µM

SMILES: O=c1[nH]cc(F)c(=O)[nH]1 [5-FU, 5-fluorouracil]
- cell viability HaCat I5 (in words) (HaCat I5 keratinocytes): resistant
- cell viability HaCat (in words) (HaCat keratinocytes): resistant

SMILES: O=C(CCCN1CCC(O)(c2ccc(Cl)cc2)CC1)c1ccc(F)cc1 [Haloperidol]
- IC50 [1, 8]: > 200 µM

SMILES: CN(C)CCC=C1c2ccccc2CCc2ccccc21 [Amitriptiline]
- IC50 (different cell-lines; read-out: IC50 Mean +/− SD): 64 µM
- IC50 (mouse melanoma (B-16); [10]): 64 µM

SMILES: CN(C)CCCN1c2ccccc2Sc2ccc(Cl)cc21 [Chlorpromazine]
- IC50 (different cell-lines; read-out: IC50 Mean ± SD): 45.7 ± 33.3 µM
- IC50 ([6]; Homo sapiens, SK-N-SH, Table 1A): 100 µM
- IC50 (rat glioblastoma (C6); Rattus norvegicus): 22 µM
- IC50 (mouse melanoma (B-16); [9]): 46 µM
- IC50 ([7]; Table 1A, read-out: Viability IC50 Neuroblastoma SH-SY5T): 15 µM

SMILES: CCN1CCCC1CNC(=O)c1cc(S(N)(=O)=O)ccc1OC (centres unmarked) [Sulpiride]
- Viability IC50 Neuroblastoma SK-N-SH ([6]; Table 1C): Non Toxic
- Viability IC50 Glioma C6 (rat glioblastoma (C6); Table 1C): Non Toxic
- Viability IC50 Prostate LN-CapAp ([3]; Table 1C): Non Toxic
- IC50 [1, 8]: > 200 µM

SMILES: CN(C)CCCN1c2ccccc2CCc2ccccc21 [Imipramine]
- IC50 (different cell-lines; read-out: IC50 Mean +/− SD): 38.5 µM
- IC50 (mouse lung sarcoma (3LL)): 12 µM
- IC50 ([7]; Table 1B, read-out: Cell viability IC50 Neuroblastoma SH-SY5T): 69 µM
